Measurements as given in patent US6274715A, “Tricyclic erythromycin derivatives” (priority 1997, dated 2001).
In brackets after ≈: the same amount, converted by molar mass.

Legend:
Assay type in all cases: cell-based
[1] = test system: STAPHYLOCOCCUS AUREUS ATCC 6538P; experiment: In vitro antibacterial activity, MIC, BHI agar dilution; conditions: S. aureus ATCC 6538P, 35-37° C., 20 to 24 hours, unit assumed
[2] = test system: STAPHYLOCOCCUS AUREUS A5177; experiment: as above; conditions: S. aureus A5177, unit assumed
[3] = test system: STAPHYLOCOCCUS AUREUS A-5278; experiment: as above; conditions: S. aureus A-5278, unit assumed
[4] = test system: STAPHYLOCOCCUS AUREUS CMX 642A; experiment: as above; conditions: S. aureus CMX 642A, unit assumed
[5] = test system: STAPHYLOCOCCUS AUREUS NCTC10649M; experiment: as above; conditions: S. aureus NCTC10649M, unit assumed
[6] = test system: STAPHYLOCOCCUS AUREUS CMX 553; experiment: as above; conditions: S. aureus CMX 553, unit assumed
[7] = test system: STAPHYLOCOCCUS AUREUS 1775; experiment: as above; conditions: S. aureus 1775, unit assumed
[8] = test system: STAPHYLOCOCCUS EPIDERMIDIS 3519; conditions: S. epidermidis 3519; BHI agar; unit assumed
[9] = test system: EN[…] ATCC 8043; experiment: In vitro antibacterial activity, MIC, BHI agar dilution; conditions: E. faecium ATCC 8043, unit assumed
Outline: (§1)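 BHI agar dilution: twelve plates with successive compound dilutions, inoculated by replicator with 1:100 culture dilutions (1:10 for slow growers such as Micrococcus and Streptococcus), 20 to 24 hours at 35-37° C. MIC was the lowest concentration giving no growth, slight haze or sparse isolated colonies versus drug-free control; erythromycin A as class reference.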

[10] = test system: M[…] ATCC 4698; experiment: as above; conditions: M. luteus ATCC 4698, unit assumed
Outline: as §1

[11] = test system: M[…] ATCC 9341; experiment: as above; conditions: M. luteus ATCC 9341, unit assumed
Outline: as §1

[12] = test system: STR[…] 508; experiment: as above; conditions: S. agalactiae CMX 508, unit assumed
Outline: as §1

[13] = test system: STREPTOCOCCUS BOVIS A-5169; experiment: as above; conditions: S. bovis A-5169, unit assumed
[14] = test system: STREPTOCOCCUS PYOGENES 930; experiment: as above; conditions: S. pyogenes 930, unit assumed
[15] = test system: STREPTOCOCCUS PYOGENES PIU 2548; experiment: as above; conditions: S. pyogenes PIU 2548, unit assumed
[16] = test system: ESCHERICHIA COLI JUHL; conditions: E. coli JUHL; BHI agar; unit assumed
[17] = test system: ESCHERICHIA COLI SS; experiment: In vitro antibacterial activity, MIC, BHI agar dilution; conditions: E. coli SS, unit assumed
[18] = test system: ESCHERICHIA COLI DC-2; experiment: as above; conditions: E. coli DC-2, unit assumed
[19] = test system: ESCHERICHIA COLI H560; experiment: as above; conditions: E. coli H560, unit assumed
[20] = test system: ESCHERICHIA COLI KNK 437; conditions: E. coli KNK 437; BHI agar; unit assumed
[21] = test system: ENTEROBACTER AEROGENES ATCC 13048; experiment: In vitro antibacterial activity, MIC, BHI agar dilution; conditions: E. aerogenes ATCC 13048, unit assumed
[22] = test system: KLEBSIELLA PNEUMONIAE ATCC 8045; experiment: as above; conditions: K. pneumoniae ATCC 8045, unit assumed
[23] = test system: PROVIDENCIA STUARTII CMX 640; conditions: P. stuartii CMX 640; BHI agar; unit assumed
[24] = test system: PSEUDOMONAS AERUGINOSA BMH10; experiment: In vitro antibacterial activity, MIC, BHI agar dilution; conditions: P. aeruginosa BMH10, unit assumed
[25] = test system: PSEUDOMONAS AERUGINOSA 5007; experiment: as above; conditions: P. aeruginosa 5007, unit assumed
[26] = test system: PSEUDOMONAS AERUGINOSA K799/WT; experiment: as above; conditions: P. aeruginosa K799/WT, unit assumed
[27] = test system: PSEUDOMONAS AERUGINOSA K799/61; experiment: as above; conditions: P. aeruginosa K799/61, unit assumed
[28] = test system: PSEUDOMONAS CEPACIA 296I; experiment: as above; conditions: P. cepacia 296I, unit assumed
[29] = test system: PSEUDOMONAS AERUGINOSA DPHD-5263; experiment: as above; conditions: P. aeruginosa DPHD-5263, unit assumed
[30] = test system: PSEUDOMONAS AERUGINOSA DPHD-2862; experiment: as above; conditions: P. aeruginosa DPHD-2862, unit assumed
[31] = test system: CANDIDA ALBICANS CCH 442; experiment: as above; conditions: C. albicans CCH 442, unit assumed
[32] = test system: MYCOBACTERIUM SMEGMATIS ATCC 114; experiment: as above; conditions: M. smegmatis ATCC 114, unit assumed
[33] = test system: STREPTOCOCCUS PYOGENES EES61; experiment: as above; conditions: S. pyogenes EES61, unit assumed

Compound | MIC [1] [µg/mL] | MIC [2] [µg/mL] | MIC [3] [µg/mL] | MIC [4] [µg/mL] | MIC [5] [µg/mL] | MIC [6] [µg/mL] | MIC [7] [µg/mL] | MIC [8] [µg/mL] | MIC [9] [µg/mL] | MIC [10] [µg/mL] | MIC [11] [µg/mL] | MIC [12] [µg/mL] | MIC [13] [µg/mL] | MIC [14] [µg/mL] | MIC [15] [µg/mL] | MIC [16] [µg/mL] | MIC [17] [µg/mL] | MIC [18] [µg/mL] | MIC [19] [µg/mL] | MIC [20] [µg/mL] | other results
C=CCN1CC2N=C3[C@H](C)C[C@@](C)(OC)[C@H](O[C@@H]4O[C@H](C)C[C@H](N(C)C)[C@H]4O)[C@@H](C)C(=O)[C@@H](C)C(=O)O[C@H](CC)[C@@]4(C)OC(=O)N(C2C1)[C@@H]4[C@H]3C (stereo partly drawn) [Example 116] | 0.78 (≈ 1.08 µM) | 0.78 (≈ 1.08 µM) | > 100 | 0.78 (≈ 1.08 µM) | 0.39 (≈ 0.542 µM) | 0.78 (≈ 1.08 µM) | > 100 | 0.78 (≈ 1.08 µM) | 0.2 (≈ 0.278 µM) | 0.39 (≈ 0.542 µM) | 0.2 (≈ 0.278 µM) | 0.05 (≈ 0.0695 µM) | ≤ 0.005 | > 100 | 0.78 (≈ 1.08 µM) | 50 (≈ 69.5 µM) | 0.39 (≈ 0.542 µM) | 100 (≈ 139 µM) | 50 (≈ 69.5 µM) | > 100 | MIC [21]: > 100 µg/mL; MIC [22]: > 100 µg/mL; MIC [23]: > 100 µg/mL; MIC [24]: 100 µg/mL (≈ 139 µM); MIC [25]: > 100 µg/mL; MIC [26]: > 100 µg/mL; MIC [27]: 3.1 µg/mL (≈ 4.31 µM); MIC [28]: > 100 µg/mL; MIC [29]: > 100 µg/mL; MIC [30]: > 100 µg/mL; MIC [31]: > 100 µg/mL; MIC [32]: 1.56 µg/mL (≈ 2.17 µM)
CC[C@H]1OC(=O)[C@H](C)C(=O)[C@H](C)[C@@H](O[C@@H]2O[C@H](C)C[C@H](N(C)C)[C@H]2O)[C@](C)(OC)C[C@@H](C)C2=NC[C@H](C)N3C(=O)O[C@@]1(C)[C@H]3[C@H]2C [Example 8] | 0.78 (≈ 1.2 µM) | 0.78 (≈ 1.2 µM) | > 100 | 0.78 (≈ 1.2 µM) | 0.78 (≈ 1.2 µM) | 0.78 (≈ 1.2 µM) | > 100 | 0.78 (≈ 1.2 µM) | 0.78 (≈ 1.2 µM) | 1.56 (≈ 2.39 µM) | 1.56 (≈ 2.39 µM) | 0.1 (≈ 0.153 µM) | 0.1 (≈ 0.153 µM) | > 100 | 0.78 (≈ 1.2 µM) | 100 (≈ 153 µM) | 0.78 (≈ 1.2 µM) | 50 (≈ 76.7 µM) | 25 (≈ 38.4 µM) | 100 (≈ 153 µM) | MIC [33]: 0.1 µg/mL (≈ 0.153 µM); MIC [21]: 100 µg/mL (≈ 153 µM); MIC [22]: 100 µg/mL (≈ 153 µM); MIC [23]: > 100 µg/mL; MIC [24]: 100 µg/mL (≈ 153 µM); MIC [25]: > 100 µg/mL; MIC [26]: 100 µg/mL (≈ 153 µM); MIC [28]: > 100 µg/mL; MIC [29]: > 100 µg/mL; MIC [30]: > 100 µg/mL; MIC [31]: > 100 µg/mL; MIC [32]: 6.2 µg/mL (≈ 9.51 µM)
CC[C@H]1OC(=O)[C@H](C)C(=O)[C@H](C)[C@@H](O[C@@H]2O[C@H](C)C[C@H](N(C)C)[C@H]2O)[C@](C)(OC)C[C@@H](C)C2=N[C@@H](C)[C@H](C)N3C(=O)O[C@@]1(C)[C@H]3[C@H]2C [Example 11] | 0.39 (≈ 0.586 µM) | 0.39 (≈ 0.586 µM) | > 100 | 0.39 (≈ 0.586 µM) | 0.39 (≈ 0.586 µM) | 0.39 (≈ 0.586 µM) | > 100 | 0.39 (≈ 0.586 µM) | 0.1 (≈ 0.15 µM) | 0.39 (≈ 0.586 µM) | 0.2 (≈ 0.3 µM) | 0.05 (≈ 0.0751 µM) | 0.01 (≈ 0.015 µM) | > 100 | 0.39 (≈ 0.586 µM) | 25 (≈ 37.5 µM) | 0.39 (≈ 0.586 µM) | 25 (≈ 37.5 µM) | 6.2 (≈ 9.31 µM) | 25 (≈ 37.5 µM) | MIC [33]: 0.005 µg/mL (≈ 0.00751 µM); MIC [21]: 25 µg/mL (≈ 37.5 µM); MIC [22]: 12.5 µg/mL (≈ 18.8 µM); MIC [23]: > 100 µg/mL; MIC [24]: > 100 µg/mL; MIC [25]: > 100 µg/mL; MIC [26]: > 100 µg/mL; MIC [28]: > 100 µg/mL; MIC [29]: > 100 µg/mL; MIC [30]: > 100 µg/mL; MIC [31]: > 100 µg/mL; MIC [32]: 6.2 µg/mL (≈ 9.31 µM)
